Assays:
Type in all cases: in vivo
[1] = system: Green Peach Aphid (Myzus persicae, mixed life stages); assay: Green peach aphid, sprayed infested bell pepper plants; conditions: 120 h, test concentration of 1415 ppm, after 5 days, relative to mortality on untreated control plants
Excerpt: The active compounds were formulated in cyclohexanone as a 10,000 ppm solution supplied in tubes. The tubes were inserted into an automated electrostatic sprayer equipped with an atomizing nozzle and they served as stock solutions for which lower dilutions were made in 50% acetone:50% water (v/v). A nonionic surfactant (Kinetic®) was included in the solution at a volume of 0.01 % (v/v). Bell pepper plants at the first true-leaf stage were infested prior to treatment by placing heavily infested leaves from the main colony on top of the treatment plants. Aphids were allowed to transfer overnight to accomplish an infestation of 30-50 aphids per plant and the host leaves were removed. The infested plants were then sprayed by an automated electrostatic plant sprayer equipped with an atomizing spray nozzle. The plants were dried in the sprayer fume hood, removed, and then maintained in a growth room under fluorescent lighting in a 24-hr photoperiod at about 25°C and about 20-40% relative humidity. Aphid mortality on the treated plants, relative to mortality on untreated control plants, was determined after 5 days.

[2] = system: Southern Armyworm (Spodoptera eridania, 2nd instar larvae); assay: Southern armyworm, sprayed lima bean plants; conditions: 96 h, test concentration of 500 ppm, 4 days after treatment, in comparison with untreated controls
Protocol: The active compounds were formulated in cyclohexanone as a 10, 0000 ppm solution supplied in 1.3 ml ABgene® tubes. These tubes were inserted into an automated electrostatic sprayer equipped with an atomizing nozzle and they served as stock solutions for which lower dilutions were made in 50% acetone: 50% water (v/v). A nonionic surfactant (Kinetic®) was included in the solution at a volume of 0.01% (v/v). Lima bean plants (variety Sieva) were grown 2 plants to a pot and selected for treatment at the 1st true leaf stage. Test solutions were sprayed onto the foliage by an automated electrostatic plant sprayer equipped with an atomizing spray nozzle. The plants were dried in the sprayer fume hood and then removed from the sprayer. Each pot was placed into perforated plastic bags with a zip closure. Ten to 11 armyworm larvae were placed into the bag and the bags zipped closed. Test plants were maintained in a growth room at 25°C and 20-40% relative humidity for 4 days, avoiding direct exposure to fluorescent light (24 hour photoperiod) to prevent trapping of heat inside the bags. Mortality and reduced feeding were assessed 4 days after treatment, compared to untreated control plants.

[3] = system: vetch aphid (Megoura viciae); assay: Vetch aphid control, broad bean leaf disks, contact or systemic; conditions: foliar, 120 h, test concentration of 1415 ppm, aphid mortality visually assessed after 5 days
[4] = system: Rice brown plant hopper (Nilaparvata lugens); assay: Rice brown plant hopper, sprayed potted rice seedlings; conditions: test concentration of 500 ppm, after 72 hours, in comparison with untreated controls
Protocol: Rice seedlings were cleaned and washed 24 hours before spraying. The active compounds were formulated in 50:50 acetone:water (vol:vol) and 0.1 % vol/vol surfactant (EL 620) was added. Potted rice seedlings were sprayed with 5 ml test solution, air dried, placed in cages and inoculated with 10 adults. Treated rice plants were kept at about 28-29°C and relative humidity of about 50-60%. Percent mortality was recorded after 72 hours.

[5] = system: boll weevil (Anthonomus grandis); assay: Boll weevil control, insect diet in 24-well microtiter plates; conditions: 120 h, test concentration of 1415 ppm, egg and larval mortality visually assessed after 5 days
Protocol: For evaluating control of boll weevil (Anthonomus grandis) the test unit consists of 24-well-microtiter plates containing an insect diet and 20-30 A. grandis eggs. The compounds were formulated using a solution containing 75% v/v water and 25% v/v DMSO. Different concentrations of formulated compounds were sprayed onto the insect diet at 20 µl, using a custom built micro atomizer, at two replications. After application, microtiter plates were incubated at about 23 ± 1°C and about 50 ± 5 % relative humidity for 5 days. Egg and larval mortality was then visually assessed.

[6] = system: Mediterranean fruitfly (Ceratitis capitata); assay: Mediterranean fruitfly control, insect diet in microtiter plates; conditions: 120 h, test concentration of 1415 ppm, egg and larval mortality visually assessed after 5 days
Protocol: (§1) For evaluating control of Mediterranean fruitfly (Ceratitis capitata) the test unit consisted of microtiter plates containing an insect diet and 50-80 C. capitata eggs. The compounds were formulated using a solution containing 75% v/v water and 25% v/v DMSO. Different concentrations of formulated compounds were sprayed onto the insect diet at 5 µl, using a custom built micro atomizer, at two replications. After application, microtiter plates were incubated at about 28 ± 1°C and about 80 ± 5 % relative humidity for 5 days. Egg and larval mortality was then visually assessed.

[7] = system: tobacco budworm (Heliothis virescens); assay: Tobacco budworm control, insect diet in 96-well microtiter plates; conditions: 120 h
Protocol: as §1, with “of tobacco budworm (Heliothis virescens)” for “of Mediterranean fruitfly (Ceratitis capitata)”, “unit consists” for “unit consisted”, “of 96-well-microtiter” for “of microtiter”, “and 15-25 H. virescens” for “and 50-80 C. capitata”, “at 10” for “at 5”

[8] = system: Orchid thrips (Dichromothrips corbetti); assay: Orchid thrips, floral-immersion technique; conditions: 96 h, test concentration of 100 ppm, after 4 days, in comparison with untreated controls
Protocol: Dichromothrips corbetti adults used for bioassay were obtained from a colony maintained continuously under laboratory conditions. For testing purposes, the test compound was diluted to a concentration of 300 ppm (wt compound: vol diluent) in a 1:1 mixture of acetone:water (vol:vol), plus 0.01 % vol/vol Kinetic® surfactant. Thrips potency of each compound was evaluated by using a floral-immersion technique. Plastic petri dishes were used as test arenas. All petals of individual, intact orchid flowers were dipped into treatment solution and allowed to dry. Treated flowers were placed into individual petri dishes along with 10 - 15 adult thrips. The petri dishes were then covered with lids. All test arenas were held under continuous light and a temperature of about 28°C for duration of the assay. After 4 days, the numbers of live thrips were counted on each flower, and along inner walls of each petri dish. The level of thrips mortality was extrapolated from pre-treatment thrips numbers.

Row | SMILES | mortality at 1415 ppm [1] | mortality at 500 ppm [2] | other results
1 | CCS(=NC(=O)c1cccc(-c2cccc(-c3c([O-])[n+](Cc4ccc(Cl)nc4)c4ccccn4c3=O)c2)c1)C1CC1 (centres unmarked) [Compound C-12] | ≥ 75% | – | –
2 | CCS(CC)=NC(=O)c1cccc(-c2cc(-c3c([O-])[n+](Cc4ccc(Cl)nc4)c4ccccn4c3=O)ccc2OC)c1 [Compound C-9] | ≥ 75% | – | –
3 | CC(C)S(=NC(=O)c1cccc(-c2c([O-])[n+](Cc3ccc(Cl)nc3)c3ccccn3c2=O)c1)C(C)C [Compound C-5] | ≥ 75% | ≥ 75% | –
4 | CCS(=NC(=O)c1ccc(-c2cccc(-c3c([O-])[n+](Cc4ccc(Cl)nc4)c4ccccn4c3=O)c2)cc1)C1CC1 (centres unmarked) [Compound C-7] | ≥ 75% | ≥ 75% | mortality at 1415 ppm [3]: ≥ 75%
5 | CCS(CC)=NC(=O)c1cccc(-c2cc(-c3c([O-])[n+](Cc4cnc(Cl)s4)c4c(C)cccn4c3=O)ccc2Cl)c1 [Compound C-10] | ≥ 75% | – | –
6 | CCS(CC)=NC(=O)c1cccc(-c2cccc(-c3c([O-])[n+](Cc4ccc(Cl)nc4)c4ccccn4c3=O)c2)c1 [Compound C-11] | ≥ 75% | – | –
7 | CC(C)S(=NC(=O)c1cccc(-c2cccc(-c3c([O-])[n+](Cc4ccc(Cl)nc4)c4ccccn4c3=O)c2)c1)C(C)C [Compound C-13] | ≥ 75% | – | mortality at 500 ppm [4]: ≥ 75%
8 | CCS(CC)=NC(=O)c1ccc(-c2cccc(-c3c([O-])[n+](Cc4cnc(Cl)s4)c4c(C)cccn4c3=O)c2)cc1 [Compound C-1] | ≥ 75% | ≥ 75% | mortality at 1415 ppm [5]: ≥ 75%; mortality at 1415 ppm [6]: ≥ 75%; mortality at 1415 ppm [7]: ≥ 75%; mortality at 100 ppm [8]: ≥ 75%
9 | CC(C)S(=NC(=O)c1ccc(-c2cccc(-c3c([O-])[n+](Cc4ccc(Cl)nc4)c4ccccn4c3=O)c2)cc1)C(C)C [Compound C-8] | ≥ 75% | ≥ 75% | –
10 | CCS(CC)=NC(=O)c1cccc(-c2c([O-])[n+](Cc3ccc(Cl)nc3)c3ccccn3c2=O)c1 [Compound C-4, 1-[(6-chloro-3-pyridyl)methyl]-3-[3-[(diethyl-λ4-sulfanylidene)carbamoyl]phenyl]-4-oxo-pyrido[1,2-a]pyrimidin-1-ium-2-olate] | – | ≥ 75% | –

Source: patent EP2684879A1, “Substituted mesoionic compounds for combating animal pests” (priority 2012, dated 2014)
